Assay results from patent US12344597B2, “Alkoxy-substituted pyridinyl derivatives as LPA1 receptor antagonists and their use in the treatment of fibrosis” (IDORSIA PHARMACEUTICALS LTD, priority 2018, dated 2025).

target: human LPA1 receptor (Homo sapiens (Human), UniProt Q92633); assay: Beta-arrestin recruitment assay to determine IC50 values for human LPAR1; format: cell-based; conditions: antagonist mode, Tango EDG2-bla U2OS cells, LPA 18:1 500 nM final
Text: Beta-Arrestin Recruitment Assay to Determine IC50 Values for Human LPAR1
The Tango™ EDG2-bla U2OS cells are obtained from Invitrogen. These cells contain the human LPA1 receptor cDNA linked to a TEV protease site and a Gal4-VP16 transcription factor integrated into the Tango™ GPCR-bla U2OS parental cell line. This parental cell line stably expresses a beta-arrestin/TEV protease fusion protein and the beta-lactamase (bla) reporter gene under the control of a UAS response element. Upon LPA (agonist) binding, LPA1 receptor gets activated, leading to arrestin-protease recruitment and proteolytic release of the transcription factor: The transcription factor then regulates transcription of a beta-lactamase reporter construct, which is measured upon addition of the live-cell substrate.
10′000 Tango™ EDG2-bla U2OS cells are seeded in a 384-well black with clear bottom plate in 30 μl Freestyle 293 Expression Medium (Invitrogen) and incubated for 20 h at 37° C., 5% CO2. […] IC50 is the concentration of antagonist inhibiting 50% of the maximal response.

Chain of human LPA1 receptor (Q92633 whole entry): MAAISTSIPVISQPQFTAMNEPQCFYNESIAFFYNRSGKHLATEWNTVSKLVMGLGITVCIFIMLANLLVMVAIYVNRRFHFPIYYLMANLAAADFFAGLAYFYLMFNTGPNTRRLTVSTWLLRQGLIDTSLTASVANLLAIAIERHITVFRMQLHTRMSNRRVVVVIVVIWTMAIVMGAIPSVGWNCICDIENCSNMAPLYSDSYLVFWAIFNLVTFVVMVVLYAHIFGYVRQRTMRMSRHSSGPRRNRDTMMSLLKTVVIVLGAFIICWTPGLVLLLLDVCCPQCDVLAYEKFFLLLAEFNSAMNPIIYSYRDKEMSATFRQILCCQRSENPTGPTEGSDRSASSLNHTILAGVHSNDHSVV

| IC50 [nM] | Compound |
| --- | --- |
| 69 | Cc1ccc(NC(=O)C2(c3ccccc3C(C)C)CN(C(=O)C3C[C@H](O)CN3)C2)c(OC(F)F)n1 (stereo partly drawn) [Ex 12-41, N-(2-(difluoromethoxy)-6-methylpyridin-3-yl)-1-((4S)-4-hydroxypyrrolidine-2-carbonyl)-3-(2-isopropylphenyl)azetidine-3-carboxamide] |
| 30 | Cc1ccc(NC(=O)C2(c3ccccc3C(C)C)CN(C(=O)OCC3(C(=O)O)COC3)C2)c(OC(F)F)n1 [Ex 14-14, 3-(((3-((2-(difluoromethoxy)-6-methylpyridin-3-yl)carbamoyl)-3-(2-isopropylphenyl)azetidine-1-carbonyl)oxy)methyl)oxetane-3-carboxylic acid] |
| 9 | Cc1ccc(NC(=O)C2(c3ccccc3C(C)C)CCN(C(=O)CNCCO)CC2)c(OC(F)F)n1 [Ex 12-50, N-(2-(difluoromethoxy)-6-methylpyridin-3-yl)-1-((2-hydroxyethyl)glycyl)-4-(2-isopropylphenyl)piperidine-4-carboxamide] |
| 10 | CCOC(=O)c1coc(N2CC(C(=O)Nc3ccc(C)nc3OC(F)F)(c3ccccc3C(C)C)C2)n1 [Ex 18-27, ethyl 2-(3-((2-(difluoromethoxy)-6-methylpyridin-3-yl)carbamoyl)-3-(2-isopropylphenyl)azetidin-1-yl)oxazole-4-carboxylate] |
| 481 | Cc1ccc(NC(=O)C2(c3ccccc3C(C)C)CN(C(=O)[C@H](CO)NC(=O)OC(C)(C)C)C2)c(OC(F)F)n1 [Ex 12-39, tert-butyl (S)-(1-(3-((2-(difluoromethoxy)-6-methylpyridin-3-yl)carbamoyl)-3-(2-isopropylphenyl)azetidin-1-yl)-3-hydroxy-1-oxopropan-2-yl)carbamate] |
| 11 | Cc1ccc(NC(=O)C2(c3ccccc3C(C)C)CN(S(=O)(=O)NC3CC3)C2)c(OC(F)F)n1 [Ex 15-13, 1-(N-cyclopropylsulfamoyl)-N-(2-(difluoromethoxy)-6-methylpyridin-3-yl)-3-(2-isopropylphenyl)azetidine-3-carboxamide] |
| 51 | CC(C)c1ccccc1C1(C(=O)Nc2cccnc2OC(F)F)CN(C(=O)CC(C)(C)C(=O)O)C1 [Ex 12-84, 4-(3-((2-(difluoromethoxy)pyridin-3-yl)carbamoyl)-3-(2-isopropylphenyl)azetidin-1-yl)-2,2-dimethyl-4-oxobutanoic acid] |
| 7 | Cc1ccc(NC(=O)C2(c3ccccc3C(C)C)CN(C(=O)CCC(=O)C(F)(F)F)C2)c(OC(F)F)n1 [Ex 12-11, N-(2-(difluoromethoxy)-6-methylpyridin-3-yl)-3-(2-isopropylphenyl)-1-(5,5,5-trifluoro-4-oxopentanoyl)azetidine-3-carboxamide] |
| 41 | CC(C)c1ccccc1C1(C(=O)Nc2cccnc2OC(F)F)CN(c2nc(C(=O)O)co2)C1 [Ex 18-30, 2-(3-((2-(difluoromethoxy)pyridin-3-yl)carbamoyl)-3-(2-isopropylphenyl)azetidin-1-yl)oxazole-4-carboxylic acid] |
| 34 | Cc1ccc(NC(=O)C2(c3ccccc3C(C)C)CN(C(=O)NCC(=O)O)C2)c(OC(F)F)n1 [Ex 17-4, (3-((2-(difluoromethoxy)-6-methylpyridin-3-yl)carbamoyl)-3-(2-isopropylphenyl)azetidine-1-carbonyl)glycine] |
| 63 | CNC(C)(C)CN1CC(C(=O)Nc2ccc(C)nc2OC(F)F)(c2ccccc2C(C)C)C1 [Ex 11-64, N-(2-(difluoromethoxy)-6-methylpyridin-3-yl)-3-(2-isopropylphenyl)-1-(2-methyl-2-(methylamino)propyl)azetidine-3-carboxamide] |
| 10 | Cc1ccc(NC(=O)C2(c3ccccc3C(C)C)CN(C(=O)[C@H](C)N)C2)c(OC(F)F)n1 [Ex 12-33, 1-(L-alanyl)-N-(2-(difluoromethoxy)-6-methylpyridin-3-yl)-3-(2-isopropylphenyl)azetidine-3-carboxamide] |
| 25 | Cc1ccc(NC(=O)C2(c3ccccc3C(C)C)CN(S(=O)(=O)NC(C)C)C2)c(OC(F)F)n1 [Ex 15-12, N-(2-(difluoromethoxy)-6-methylpyridin-3-yl)-3-(2-isopropylphenyl)-1-(N-isopropylsulfamoyl)azetidine-3-carboxamide] |
| 15 | COc1cc(Cl)cnc1NC(=O)C1(c2ccccc2C(C)C)CN(S(N)(=O)=O)C1 [Ex 81-1, N-(5-chloro-3-methoxypyridin-2-yl)-3-(2-isopropylphenyl)-1-sulfamoylazetidine-3-carboxamide] |
| 8 | COC(=O)CNCC(=O)N1CC(C(=O)Nc2ccc(C)nc2OC(F)F)(c2ccccc2C(C)C)C1 [Ex 56, methyl (2-(3-((2-(difluoromethoxy)-6-methylpyridin-3-yl)carbamoyl)-3-(2-isopropylphenyl)azetidin-1-yl)-2-oxoethyl)glycinate] |
| 69 | COCCN(CC(=O)OC)CC(=O)N1CC(C(=O)Nc2ccc(C)nc2OC(F)F)(c2ccccc2C(C)C)C1 [Ex 54, methyl N-(2-(3-((2-(difluoromethoxy)-6-methylpyridin-3-yl)carbamoyl)-3-(2-isopropylphenyl)azetidin-1-yl)-2-oxoethyl)-N-(2-methoxyethyl)glycinate] |
| 7 | Cc1ccc(NC(=O)C2(c3ccccc3C(C)C)CN(C(=O)C[C@](C)(O)C(=O)O)C2)c(OC(F)F)n1 [Ex 12-117, (S)-4-(3-((2-(difluoromethoxy)-6-methylpyridin-3-yl)carbamoyl)-3-(2-isopropylphenyl)azetidin-1-yl)-2-hydroxy-2-methyl-4-oxobutanoic acid] |
| 43 | Cc1ccc(NC(=O)C2(c3ccccc3C(C)C)CN(Cc3cc(C(=O)O)no3)C2)c(OC(F)F)n1 [Ex 11-35, 5-((3-((2-(difluoromethoxy)-6-methylpyridin-3-yl)carbamoyl)-3-(2-isopropylphenyl)azetidin-1-yl)methyl)isoxazole-3-carboxylic acid] |
| 150 | Cc1ccc(NC(=O)C2(c3ccccc3C(C)C)CN(C(=O)COCCOCC(=O)O)C2)c(OC(F)F)n1 [Ex 12-107, 2-(2-(2-(3-((2-(difluoromethoxy)-6-methylpyridin-3-yl)carbamoyl)-3-(2-isopropylphenyl)azetidin-1-yl)-2-oxoethoxy)ethoxy)acetic acid] |
| 16 | Cc1ccc(NC(=O)C2(c3ccccc3C(C)C)CN(C(=O)NCC3(C(=O)O)CC3)C2)c(OC(F)F)n1 [Ex 17-15, 1-((3-((2-(difluoromethoxy)-6-methylpyridin-3-yl)carbamoyl)-3-(2-isopropylphenyl)azetidine-1-carboxamido)methyl)cyclopropane-1-carboxylic acid] |
| 63 | COc1cnc(NC(=O)C2(c3ccccc3C(C)C)CN(S(N)(=O)=O)C2)c(OC)c1 [Ex 81-5, N-(3,5-dimethoxypyridin-2-yl)-3-(2-isopropylphenyl)-1-sulfamoylazetidine-3-carboxamide] |
| 13 | CC(C)c1ccccc1C1(C(=O)Nc2ncc(Br)cc2OC(F)F)CN(CCC(C)(C)C(=O)O)C1 [Ex 78-3, 4-(3-((5-bromo-3-(difluoromethoxy)pyridin-2-yl)carbamoyl)-3-(2-isopropylphenyl)azetidin-1-yl)-2,2-dimethylbutanoic acid] |
| 4 | Cc1ccc(NC(=O)C2(c3ccccc3C(C)C)CN(S(=O)(=O)CC(C)(C)C(=O)O)C2)c(OC(F)F)n1 [Ex 13-12, 3-((3-((2-(difluoromethoxy)-6-methylpyridin-3-yl)carbamoyl)-3-(2-isopropylphenyl)azetidin-1-yl)sulfonyl)-2,2-dimethylpropanoic acid] |
| 1030 | CC(C)c1cccnc1C1(C(=O)Nc2ncc(Cl)cc2OC(F)F)CNC1 [Ex 77, N-(5-chloro-3-(difluoromethoxy)pyridin-2-yl)-3-(3-isopropylpyridin-2-yl)azetidine-3-carboxamide] |
| 18 | COC(=O)/C=C/S(=O)(=O)N1CC(C(=O)Nc2ccc(C)nc2OC(F)F)(c2ccccc2C(C)C)C1 [Ex 13-20, methyl (E)-3-((3-((2-(difluoromethoxy)-6-methylpyridin-3-yl)carbamoyl)-3-(2-isopropylphenyl)azetidin-1-yl)sulfonyl)acrylate] |
| 19 | Cc1ccc(NC(=O)C2(c3ccccc3C(C)C)CN(C(=O)Cc3cc(O)n[nH]3)C2)c(OC(F)F)n1 [Ex 12-24, N-(2-(difluoromethoxy)-6-methylpyridin-3-yl)-1-(2-(3-hydroxy-1H-pyrazol-5-yl)acetyl)-3-(2-isopropylphenyl)azetidine-3-carboxamide] |
| 123 | COc1cc(Cl)cnc1NC(=O)C1(c2ccccc2C(C)C)CN(C(=O)CC(C)(C)C(=O)O)C1 [Ex 79-4, 4-(3-((5-chloro-3-methoxypyridin-2-yl)carbamoyl)-3-(2-isopropylphenyl)azetidin-1-yl)-2,2-dimethyl-4-oxobutanoic acid] |
| 605 | COc1ccc(NC(=O)C2(c3ccccc3C(C)C)CN(C(=O)OC(C)(C)C)C2)c(OC)n1 [Ex 6-1, tert-butyl 3-((2,6-dimethoxypyridin-3-yl)carbamoyl)-3-(2-isopropylphenyl)azetidine-1-carboxylate] |
| 775 | Cc1ccc(NC(=O)C2(c3ccccc3C(C)C)CN(Cc3cnn(C)c3)C2)c(OC(F)F)n1 [Ex 11-23, N-(2-(difluoromethoxy)-6-methylpyridin-3-yl)-3-(2-isopropylphenyl)-1-((1-methyl-1H-pyrazol-4-yl)methyl)azetidine-3-carboxamide] |
| 6 | Cc1ccc(NC(=O)C2(c3ccccc3C(C)C)CCN(C(=O)OCC(=O)O)CC2)c(OC(F)F)n1 [Ex 14-3, 2-((4-((2-(difluoromethoxy)-6-methylpyridin-3-yl)carbamoyl)-4-(2-isopropylphenyl)piperidine-1-carbonyl)oxy)acetic acid] |
